In PMC6943638, “Lectin PLL3, a Novel Monomeric Member of the Seven-Bladed β-Propeller Lectin Family” (Molecules, 2019):
Starred links: 1 amine or outer side, 2 acyl side, 3 side chain; linkers in the order of their positions; H or OH if unused. Residues, ends and D or L forms follow the SMILES beside them. Suc = O=C(CCC(=O)[*:2])[*:1]

These compounds were tested against PLL3 (Photorhabdus laumondii subsp. laumondii, UniProt Q7N8I7) (assay: Glycan array screening with DyLight 488-labeled PLL3). Conditions: glycan array signal of DyLight 488-labeled PLL3 per immobilized glycan or bacterial polysaccharide.
PLL3, sequence (Q7N8I7 entry or part of it): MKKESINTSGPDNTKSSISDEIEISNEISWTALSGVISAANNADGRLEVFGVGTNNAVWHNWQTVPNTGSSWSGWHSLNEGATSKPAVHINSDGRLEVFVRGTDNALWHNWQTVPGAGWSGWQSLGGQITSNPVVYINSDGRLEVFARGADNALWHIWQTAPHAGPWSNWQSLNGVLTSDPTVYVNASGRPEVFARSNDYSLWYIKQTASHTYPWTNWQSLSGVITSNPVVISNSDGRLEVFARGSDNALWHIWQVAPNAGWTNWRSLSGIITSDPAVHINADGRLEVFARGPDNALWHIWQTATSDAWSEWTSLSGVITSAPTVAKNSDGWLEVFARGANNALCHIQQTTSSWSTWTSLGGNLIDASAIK
Assay type: binding
Text: Purified PLL3 protein was labeled with DyLight 488 NHS Ester (Thermo Scientific, Rockford, MI, USA) according to the manual instructions of the manufacturer. The unbound dye was removed from the solution using the Zeba Spin Desalting Column (Thermo scientific). The labeled lectin was used for glycan array screening using a glycan microarray chip (Semiotik, Moscow, Russia; chip format OSPS280715; slide number 10085636) containing over 600 mammalian and bacterial glycans (all in hexaplicates). The glycan microarray chip was incubated in 1.0 mL of PBS buffer supplemented with 0.1% (v/v) Tween 20 and placed in a humid chamber for 15 min (37 °C, 40 rpm). Then, the buffer was replaced by 0.5 mL PLL3 (200 μg mL^−1) diluted in PBS buffer with 0.1% Tween 20 and 1% (w/v) bovine serum albumin (Serva, Germany). After incubation (90 min, 37 °C, 40 rpm), the chip was washed by decreasing concentrations of PBS with 0.1% Tween 20, followed by multiple immersions in ultrapure water. Subsequently, the chip was dried by air blow. Fluorescence was read with a scanner InnoScan 1100 AL (Innopsys, Carbonne, France) with a 488 nm laser at 20 °C. The data were analyzed with the software Mapix 8.2.2 and an online glycan chip converter (Semiotik, https://rakitko.shinyapps.io/semiotik). The relative fluorescent response of PLL3 binding was calculated from hexaplicates of each glycan immobilized onto the chip. Only glycans with a response three or more times higher than trehalose and concurrently with a signal-to-noise ratio higher than two were considered as significant binders.

Compound | Median
CC(=O)N[C@H]1[C@H]([C@H](O)[C@H](O)CO)O[C@@](O[C@H](CO)[C@@H](O)[C@@H]2O[C@@](O[C@H](CO)[C@@H](O)[C@@H]3O[C@](O)(C(=O)O)C[C@H](O)[C@H]3NC(C)=O)(C(=O)O)C[C@H](O)[C@H]2NC(C)=O)(C(=O)O)C[C@@H]1O [(Sia)3] | 158
OC[C@H]1O[C@H](O[C@H]2[C@@H](O)[C@@H](CO)OC(O)[C@@H]2O)[C@H](O)[C@@H](O)[C@H]1O (stereo partly shown) [Bdi] | 134
O=C[C@@H](O)[C@@H](O)[C@H](O)[C@H](O)COP(=O)(O)O [M6P] | 148
NCCOCCOCCOCCOCCOCCOCC(=O)NCCOC1OC(COC2OC(COC3OC(CO)C(O)C3OC3OC(CO)C(O)C3O)C(OC3OC(CO)C(O)C3OC3OC(CO)C(O)C3O)C2O)C(O)C1O (stereo not shown) | 220
CC(=O)N[C@H]1[C@@H](OC[C@H](N)C(=O)O)O[C@H](CO)[C@H](O)[C@@H]1O [GalNAca1-OSer] | 208
COCC1OC(O)C(O)C(OC)C1O (stereo not shown) [3,6-Me2Glc] | 74
CC(=O)N[C@@H]1C(O)C[C@](O[C@@H]2C(O)[C@H](O[C@@H]3C(CO)OC(NC(=O)CN)C(O)[C@H]3O)OC(CO)[C@@H]2O)(C(=O)O)OC1[C@H](O)[C@H](O)CO (stereo partly shown) [3'SL-Gly] | 101
CC(=O)N[C@@H]1[C@@H](O)[C@H](O[C@@H]2O[C@H](CO)[C@@H](O)[C@H](O)[C@H]2NC(C)=O)[C@@H](CO)O[C@H]1NC(=O)C[C@H](N)C(=O)O [GlcNAcb1-4GlcNAcb-Asn] | 277
CC(=O)N[C@H]1[C@H]([C@H](O)[C@H](O)CO)OC(O)(C(=O)O)C[C@@H]1O (stereo partly shown) [Sia] | 112
CC(=O)N[C@H]1[C@H]([C@H](O)[C@H](O)CO)O[C@@](O[C@H]2[C@@H](O)[C@@H](CO)O[C@@H](O[C@H]3[C@H](O)[C@@H](NC(C)=O)C(O)O[C@@H]3CO)[C@@H]2O)(C(=O)O)C[C@@H]1O (stereo partly shown) [3'SLN] | 43
CC(=O)N[C@H]1[C@H]([C@H](O)[C@H](O)CO)OC(OC[C@H]2O[C@@H](O[C@H]3[C@H](O)[C@@H](NC(C)=O)C(O)O[C@@H]3CO)[C@H](O)[C@@H](O)[C@H]2O)(C(=O)O)C[C@@H]1O (stereo partly shown) [6'SLN] | 99
CC(=O)N[C@@H]1[C@@H](O)[C@H](O[C@@H]2O[C@H](CO)[C@H](O)[C@H](O[C@H]3O[C@H](CO)[C@H](O)[C@H](O)[C@H]3NC(C)=O)[C@H]2O[C@@H]2O[C@@H](C)[C@@H](O)[C@@H](O)[C@@H]2O)[C@@H](CO)O[C@H]1O [Atype2] | 158
NCC(O)C(O)C(O)C(O)CO (stereo not shown) [HOCH2(HOCH)4CH2NH2] | 293
CC(=O)N[C@H]1[C@H](OCCCN)O[C@H](CO)[C@@H](O[C@@H]2O[C@H](CO)[C@H](O)[C@H](O)[C@H]2O)[C@@H]1O [Galb1-4GlcNAcb-sp8] | 184
CC(=O)N[C@H]1[C@@H](O[C@H]2[C@@H](O)[C@@H](CO)OC(O)[C@@H]2O[C@@H]2O[C@@H](C)[C@@H](O)[C@@H](O)[C@@H]2O)O[C@H](CO)[C@H](O)[C@@H]1O (stereo partly shown) [Atri] | 167

Same assay, conditions: glycan array signal of DyLight 488-labeled PLL3 per printed glycan; Table S2, file PLU35_second_noheader.gpr

Compound | Median
Laminaran | 417
CC(C)C[C@H](NC(=O)CCC(=O)O)C(=O)N1CCC[C@H]1C(=O)N[C@@H](Cc1c[nH]c2ccccc12)C(=O)N[C@@H](Cc1ccc(O)cc1)C(=O)N[C@@H](CCCNC(=N)N)C(=O)N[C@@H](C)C(=O)N1CCC[C@H]1C(=O)N[C@@H](CCCCN)C(N)=O [RhD] (Suc-LPWYRAPK-NH2) | 563
Chitosan | 1790
NCC(=O)NCC(=O)NCC(=O)NCC(=O)NCC(=O)NCC(N)=O [Gly6] | 530
OC[C@H]1O[C@H](O[C@H]2O[C@H](CO)[C@@H](O)[C@H](O)[C@H]2O)[C@H](O)[C@@H](O)[C@@H]1O [Treh] | 2512
Mannan | 480
Laminarin | 954
CC(=O)N[C@H]1[C@H](O[C@H]2[C@@H](O)[C@@H](CO)O[C@@H](O[C@@H]([C@H](O)[C@@H](O)C=O)[C@H](O)CO)[C@@H]2O)O[C@H](CO[C@]2(C(=O)O)C[C@H](O)[C@@H](NC(C)=O)[C@H]([C@H](O)[C@H](O)CO)O2)[C@@H](O)[C@@H]1O[C@@H]1O[C@H](CO)[C@H](O)[C@H](O)[C@H]1O [LSTb] | 348
CC(=O)N[C@H]1[C@H](O[C@H]2[C@@H](O)[C@@H](CO)O[C@@H](O[C@H]3[C@H](O)[C@@H](O)C(O)O[C@@H]3CO)[C@@H]2O)O[C@H](CO)[C@@H](O)[C@@H]1O[C@@H]1O[C@H](CO)[C@H](O)[C@H](O[C@]2(C(=O)O)C[C@H](O)[C@@H](NC(C)=O)[C@H]([C@H](O)[C@H](O)CO)O2)[C@H]1O (stereo partly shown) [LSTa] | 328
Curdlan | 1158
CC(=O)N[C@H]1[C@H](O[C@H]2[C@@H](O)[C@@H](CO)O[C@@H](O[C@H]3[C@H](O)[C@@H](O)C(O)O[C@@H]3CO)[C@@H]2O)O[C@H](CO)[C@@H](O)[C@@H]1O[C@@H]1O[C@H](CO)[C@H](O)[C@H](O)[C@H]1O (stereo partly shown) [LNT] | 349
O=P(O)(O)OC[C@H]1O[C@H](O)[C@H](O)[C@@H](O)[C@@H]1O [G6P] | 615
CCCCCn1ccc2ccccc21 [NpentylIndol] | 872
C[C@@H]1O[C@@H](O[C@H]2[C@H](O[C@H]3[C@H](O)[C@@H](O)[C@H](O)O[C@@H]3CO)O[C@H](CO)[C@H](O)[C@@H]2O)[C@@H](O)[C@H](O)[C@@H]1O [Htype6] | 474
Scleroglucan | 1150
OC[C@H]1O[C@@H](O[C@H]2[C@H](O)[C@@H](O)[C@H](O)O[C@@H]2CO)[C@H](O)[C@@H](O)[C@@H]1O [cello] | 672
